46 compounds from patent US6573275B1, “Bicyclic amines” (Syngenta Limited, priority 1995, dated 2003) can be followed below.

Molecules are shown by their SMILES.

The test system of this data set is peach aphid (Myzus persicae). Nature of the data set: Insecticidal test against peach aphid, infested Chinese cabbage leaves sprayed. It is filed as in vivo. Particulars: peach aphid (Myzus persicae) on Chinese cabbage leaves, sprayed with 500 ppm composition unless otherwise stated, mortality assessed after 3 days. How it is done:
This Example illustrates the insecticidal properties of the compounds of Formula I. The activity of the compounds of Formula I was determined using a variety of pests. The pests were treated with a liquid composition containing 500 parts per million (ppm) by weight of the compound unless otherwise stated. The compositions were made by dissolving the compound in acetone and ethanol (50:50) mixture and diluting the solutions with water containing 0.05% by weight of a wetting agent sold under the trade name “SYNPERONIC” NP8 until the liquid composition contained the required concentration of the compound. “SYNPERONIC” is a Registered Trade Mark.
The test procedure adopted with regard to each pest was basically the same and comprised supporting a number of the pests on a medium which was usually a substrate, a host plant or a foodstuff on which the pests feed, and treating either or both the medium and the pests with the compositions. The mortality of the pests was then assessed at periods usually varying from two to five days after the treatment.
In this test Chinese cabbage leaves were infested with aphids, the infested leaves were sprayed with the test composition, and the mortality assessed after 3 days.
On to `COC(=O)CN1C2CCC1CC(C#N)(c1cccnc1)C2` (stereo not drawn) [Compound 51, exo-3-(pyrid-3-yl)-endo-3-cyano-8-(methoxycarbonylmethyl)-8-azabicyclo[3.2.1]octane], for which the “Score (grading of mortality)” value is “A (A indicates 80-100% mortality)”.
Next, `CN1C2CCC1CC(C#N)(c1ccc([N+](=O)[O-])cc1F)C2` (stereo not shown) [Compound 52]: “C (C indicates less than 40% mortality)”.
To `CN1C2CCC1CC(C#N)(c1cccc(F)c1)C2` (stereo not shown) [Compound 53] belongs “A (A indicates 80-100% mortality)”; to `N#CC1(c2cccnc2)CC2CCC(C1)N2CCO` (stereo not shown) [Compound 54], “A (A indicates 80-100% mortality)”.
Next, `CN1C2CCC1CC(C#N)(c1cnc(Cl)c(Cl)c1)C2` (stereo not drawn) [Compound 55, exo-3-(5,6-dichloropyrid-3-yl)-endo-3-cyano-8-methyl-8-azabicyclo[3.2.1]octane]: “A (A indicates 80-100% mortality)”; `C#CCN1C2CCC1CC(C#N)(c1cccnc1)C2` (stereo not shown) [Compound 56]: “A (A indicates 80-100% mortality)”.
On to `CN1C2CCC1CC(C#N)(c1cccnc1)C2` (stereo not shown) [Compound 57], for which the “Score (grading of mortality)” value was “A (A indicates 80-100% mortality)”.
For `CC=CCN1C2CCC1CC(C#N)(c1cccnc1)C2` (stereo not shown) [Compound 58], the “Score (grading of mortality)” value is on record as “C (C indicates less than 40% mortality)”.
As for `N#CC1(c2cc(F)cc(F)c2)CC2CCC(C1)N2c1ccc([N+](=O)[O-])cc1` (stereo not shown) [Compound 59], the “Score (grading of mortality)” value is given as “A (A indicates 80-100% mortality)”.
Next, `CN1C2CCC1CC(C#N)(c1cncc(Cl)c1)C2` (stereo not drawn) [Compound 60, exo-3-(5-chloropyrid-3-yl)-endo-3-cyano-8-methyl-8-azabicyclo[3.2.1]octane]: “A (A indicates 80-100% mortality)”; `N#CC1(c2cccnc2)CC2CCC(C1)N2c1ccccc1` (stereo not shown) [Compound 61]: “A (A indicates 80-100% mortality)”.
On to `CN1C2CCC1CC(C#N)(c1cnccn1)C2` (stereo not drawn) [Compound 62, exo-3-(pyrazin-2-yl)-endo-3-cyano-8-methyl-8-azabicyclo[3.2.1]octane], for which the “Score (grading of mortality)” value was “A (A indicates 80-100% mortality)”.
To `CN1C2CCC1CC(C#N)(c1cc(Cl)nc(Cl)n1)C2` (stereo not drawn) [Compound 63, exo-3-(2,6-dichloropyrimid-4-yl)-endo-3-cyano-8-methyl-8-azabicyclo[3.2.1]octane] belongs “C (C indicates less than 40% mortality)”; to `N#CC1(c2cncc(Cl)c2)CC2CCC(C1)N2CCF` (stereo not shown) [Compound 64], “A (A indicates 80-100% mortality)”; to `CN1C2CCC1CC(C#N)(c1cc(Cl)nc(Cl)c1)C2` (stereo not drawn) [Compound 65, exo-3-(2,6-dichloropyrid-4-yl)-endo-3-cyano-8-methyl-8-azabicyclo[3.2.1]octane], “C (C indicates less than 40% mortality)”.
On to `CN1[C@@H]2CC[C@H]1C[C@](C#N)(c1cc(Cl)nc(NN)c1)C2` [Compound 66, exo-3-(2-chloro-6-hydrazinopyrid-4-yl)-endo-3-cyano-8-methyl-8-azabicyclo[3.2.1]octane], for which the “Score (grading of mortality)” value is listed as “C (C indicates less than 40% mortality)”.
Next, `CN1C2CCC1CC(C#N)(c1ccncc1)C2` (stereo not drawn) [Compound 67, exo-3-(pyrid-4-yl)-endo-3-cyano-8-methyl-8-azabicyclo[3.2.1]octane]: “A (A indicates 80-100% mortality)”; `CN1C2CCC1CC(C#N)(c1cncc(Br)c1)C2` (stereo not drawn) [Compound 68, exo-3-(5-bromopyrid-3-yl)-endo-3-cyano-8-methyl-8-azabicyclo[3.2.1]octane]: “A (A indicates 80-100% mortality)”; `C=COC(=O)N1[C@@H]2CC[C@H]1C[C@](C#N)(c1cncc(Cl)c1)C2` [Compound 69, exo-3-(5-chloropyrid-3-yl)-endo-3-cyano-8-(vinyloxycarbonyl)-8-azabicyclo[3.2.1]octane]: “A (A indicates 80-100% mortality)”.
Next, `N#CC1(c2cncc(Cl)c2)CC2CCC(C1)N2` (stereo not drawn) [Compound 70, exo-3-(5-chloropyrid-3-yl)-endo-3-cyano-8-azabicyclo[3.2.1]octane]: “A (A indicates 80-100% mortality)”; `CN1C2CCC1CC(C#N)(c1cccc(Cl)n1)C2` (stereo not shown) [Compound 71]: “A (A indicates 80-100% mortality)”.
In the case of `N#C[C@@]1(c2cncc(Cl)c2)C[C@H]2CC[C@@H](C1)N2CC(F)(F)F` [Compound 72, exo-3-(5-chloropyrid-3-yl)-endo-3-cyano-8-(2,2,2-trifluoroethyl)-8-azabicyclo[3.2.1]octane], the “Score (grading of mortality)” value is reported as “A (A indicates 80-100% mortality)”.
Next, `N#CC1(c2cc(F)cc(F)c2)CC2CCC(C1)N2c1ccccn1` (stereo not shown) [Compound 73]: “C (C indicates less than 40% mortality)”.
Next, `N#CC1(c2cncc(Cl)c2)CC2CCC(C1)N2c1ccccc1` (stereo not shown) [Compound 74]: “A (A indicates 80-100% mortality)”; `C#CCN1C2CCC1CC(C#N)(c1cncc(Cl)c1)C2` (stereo not shown) [Compound 75]: “A (A indicates 80-100% mortality)”.
With `C=CCN1C2CCC1CC(C#N)(c1cncc(Cl)c1)C2` (stereo not drawn) [Compound 76, exo-3-(5-chloropyrid-3-yl)-endo-3-cyano-8-allyl-8-azabicyclo[3.2.1]octane], the “Score (grading of mortality)” value is “A (A indicates 80-100% mortality)”.
To `COc1cncc(C2(C#N)CC3CCC(C2)N3C)c1` (stereo not drawn) [Compound 77, exo-3-(5-methoxypyrid-3-yl)-endo-3-cyano-8-methyl-8-azabicyclo[3.2.1]octane] belongs “A (A indicates 80-100% mortality)”.
On to `CCN1C2CCC1CC(C#N)(c1cncc(Cl)c1)C2` (stereo not shown) [Compound 78], for which the “Score (grading of mortality)” value is listed as “A (A indicates 80-100% mortality)”.
Turning to `CCCCN1C2CCC1CC(C#N)(c1cncc(Cl)c1)C2` (stereo not shown) [Compound 79], the “Score (grading of mortality)” value is given as “A (A indicates 80-100% mortality)”.
Next, `COc1cncc(C2(C#N)CC3CCC(C2)N3C)c1` (stereo not shown) [Compound 80]: “A (A indicates 80-100% mortality)”; `CCCCCCN1C2CCC1CC(C#N)(c1cncc(Cl)c1)C2` (stereo not drawn) [Compound 81, exo-3-(5-chloropyrid-3-yl)-endo-3-cyano-8-(n-hexyl)-8-azabicyclo[3.2.1]octane]: “A (A indicates 80-100% mortality)”.
Turning to `N#CC1(c2cncc(Cl)c2)CC2CCC(C1)N2C(=O)Oc1ccccc1` (stereo not shown) [Compound 82], the “Score (grading of mortality)” value is “A (A indicates 80-100% mortality)”.
Take `N#CC1(c2cncc(Cl)c2)CC2CCC(C1)N2C(=O)OCC(Cl)(Cl)Cl` (stereo not shown) [Compound 83]: the “Score (grading of mortality)” value was “A (A indicates 80-100% mortality)”.
To `CCOC(=O)N1C2CCC1CC(C#N)(c1cncc(Cl)c1)C2` (stereo not shown) [Compound 84] belongs “A (A indicates 80-100% mortality)”; to `N#CC1(c2cncc(Cl)c2)CC2CCC(C1)N2C(=O)OCC1c2ccccc2-c2ccccc21` (stereo not shown) [Compound 85], “A (A indicates 80-100% mortality)”.
To `CCOC(=O)CN1C2CCC1CC(C#N)(c1cncc(Cl)c1)C2` (stereo not shown) [Compound 86] belongs “A (A indicates 80-100% mortality)”; to `CC(C)N1C2CCC1CC(C#N)(c1cncc(Cl)c1)C2` (stereo not drawn) [Compound 87, exo-3-(5-chloropyrid-3-yl)-endo-3-cyano-8-isopropyl-8-azabicyclo[3.2.1]octane], “A (A indicates 80-100% mortality)”; to `N#CC1(c2cncc(Cl)c2)CC2CCC(C1)N2C=CC(=O)C(F)(F)F` (stereo not drawn) [Compound 88, exo-3-(5-chloropyrid-3-yl)-endo-3-cyano-8-(3-oxo-4,4,4-trifluorobut-1-en-1-yl)-8-azabicyclo[3.2.1]octane], “A (A indicates 80-100% mortality)”.
Consider `CC(OC(=O)N1C2CCC1CC(C#N)(c1cncc(Cl)c1)C2)C(Cl)(Cl)Cl` (stereo not shown) [Compound 89], for which the “Score (grading of mortality)” value is on record as “C (C indicates less than 40% mortality)”.
Turning to `C=CCOC(=O)N1C2CCC1CC(C#N)(c1cncc(Cl)c1)C2` (stereo not shown) [Compound 90], the “Score (grading of mortality)” value is listed as “A (A indicates 80-100% mortality)”.
Consider `N#CC1(c2cncc(Cl)c2)CC2CCC(C1)N2C(=O)OCc1ccccc1` (stereo not shown) [Compound 91], for which the “Score (grading of mortality)” value is “A (A indicates 80-100% mortality)”.
Next, `N#CC1(c2cncc(Cl)c2)CC2CCC(C1)N2C(=O)OCCCl` (stereo not shown) [Compound 92]: “A (A indicates 80-100% mortality)”; `N#CC1(c2cncc(Cl)c2)CC2CCC(C1)N2Cc1c(F)c(F)c(F)c(F)c1F` (stereo not drawn) [Compound 93, exo-3-(5-chloropyrid-3-yl)-endo-3-cyano-8-(pentafluorophenylmethyl)-8-azabicyclo[3.2.1]octane]: “A (A indicates 80-100% mortality)”.
Next, `N#CC1(c2cncc(Cl)c2)CC2CCC(C1)N2c1ccc([N+](=O)[O-])cc1` (stereo not shown) [Compound 94]: “C (C indicates less than 40% mortality)”.
Take `CC(=O)N1C2CCC1CC(C#N)(c1cncc(Cl)c1)C2` (stereo not drawn) [Compound 95, exo-3-(5-chloropyrid-3-yl)-endo-3-cyano-8-acetyl-8-azabicyclo[3.2.1]octane]: the “Score (grading of mortality)” value was “A (A indicates 80-100% mortality)”.
To `N#CC1(c2cncc(Cl)c2)CC2CCC(C1)N2C(=O)C(F)(F)F` (stereo not shown) [Compound 96] belongs “A (A indicates 80-100% mortality)”.
